Data as given in patent publication US10407454B2, “Defined enzymatic synthesis of lipid A analogs” (The Board of Trustees of the Leland Stanford Junior …, priority 2016, dated 2019).

Target: T1, TLR4 (Homo sapiens, UniProt O00206+Q9Y6Y9)
T1 construct: endogenous in cells; host or cells: HUVEC
Test: TLR signaling assay: IL-6 release (ELISA) from LPS-stimulated HUVEC cells pretreated with Lipid IVA or analogs
Assay type: cell-based
Conditions: 1 hour pretreatment, then 100 ng/mL LPS, supernatant 18 hours after LPS, mean ± SD of triplicate wells (LPS only: 425 ± 7)
Procedure: Antagonistic Effect of Unsaturated Lipid IVA. To examine the antagonistic effect of the Lipid IVA analogues produced by our reconstituted system, products from sample 1-3 were assayed against LPS stimulated HUVEC microphage cell line. IL-6 level was measured as an indicator of TLR4 suppression. As a negative control, an in vitro reaction lacking acetyl-CoA was run and processed in parallel. Lipid IVA samples was quantified via mass spectrometry by comparing with a standard curve generated from synthetic Lipid IVA standard. […]
TLR Signaling Assays. HUVECs were grown to approximately 80% confluency in plastic 48-well cell culture plates. Six hours prior to the beginning the assay, medium was aspirated and replaced with 200 μL fresh medium per well. 100× stock dilutions of LPS (in sterile water) and Lipid IVa (in methanol) were freshly prepared from lyophilized solids. Cells were subjected to a 1-hour preincubation with the indicated amounts of Lipid IVa, or Samples 1, 2, or 3, and then LPS (100 ng/mL) was added. Aliquots of the culture supernatant were taken after 18 hours, frozen at −20 C, and then analyzed for IL-6 using a commercial ELISA kit following the manufacturer's (eBioSciences) recommended protocol.

T1 sequence (O00206 24-839): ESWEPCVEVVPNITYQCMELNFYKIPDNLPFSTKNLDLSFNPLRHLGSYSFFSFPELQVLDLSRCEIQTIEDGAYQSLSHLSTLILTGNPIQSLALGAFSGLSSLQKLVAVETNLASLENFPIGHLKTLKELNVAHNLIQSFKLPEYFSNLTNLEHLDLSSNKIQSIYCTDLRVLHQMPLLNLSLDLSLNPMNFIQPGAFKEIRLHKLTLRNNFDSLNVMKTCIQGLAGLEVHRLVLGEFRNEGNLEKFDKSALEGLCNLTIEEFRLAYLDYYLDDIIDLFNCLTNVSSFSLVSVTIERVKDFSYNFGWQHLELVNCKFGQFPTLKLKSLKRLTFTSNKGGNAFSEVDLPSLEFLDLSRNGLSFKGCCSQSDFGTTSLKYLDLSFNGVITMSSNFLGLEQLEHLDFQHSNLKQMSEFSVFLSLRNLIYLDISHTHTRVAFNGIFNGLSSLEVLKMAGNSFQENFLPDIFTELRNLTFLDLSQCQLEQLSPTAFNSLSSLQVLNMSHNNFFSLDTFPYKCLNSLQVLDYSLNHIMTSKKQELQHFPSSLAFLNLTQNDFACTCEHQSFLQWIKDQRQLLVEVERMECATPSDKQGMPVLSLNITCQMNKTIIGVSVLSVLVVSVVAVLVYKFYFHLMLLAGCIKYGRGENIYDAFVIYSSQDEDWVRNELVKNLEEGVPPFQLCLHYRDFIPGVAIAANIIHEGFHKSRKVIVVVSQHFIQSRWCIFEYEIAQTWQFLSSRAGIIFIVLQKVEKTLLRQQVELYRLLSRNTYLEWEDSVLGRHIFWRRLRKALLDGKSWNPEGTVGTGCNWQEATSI
T1 sequence (Q9Y6Y9 19-160): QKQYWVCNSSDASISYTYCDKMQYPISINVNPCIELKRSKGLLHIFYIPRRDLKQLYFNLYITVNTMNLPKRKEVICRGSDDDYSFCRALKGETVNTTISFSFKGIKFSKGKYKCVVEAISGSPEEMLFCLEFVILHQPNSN

- [IL-6] (pg/mL) in HUVEC culture supernatant (10 ng/mL compound): 484 ± 25 pg/mL
- [IL-6] (pg/mL) in HUVEC culture supernatant (100 ng/mL compound): 212 ± 33 pg/mL
- [IL-6] (pg/mL) in HUVEC culture supernatant (500 ng/mL compound): 57 ± 3 pg/mL
SMILES: CCCCCCCCCCC[C@@H](O)CC(=O)N[C@H]1[C@H](OC[C@H]2O[C@H](OP(=O)(O)O)[C@H](NC(=O)C[C@H](O)CCCCCCCCCCC)[C@@H](OC(=O)C[C@H](O)CCCCCCCCCCC)[C@@H]2O)O[C@H](CO)[C@@H](OP(=O)(O)O)[C@@H]1OC(=O)C[C@H](O)CCCCCCCCCCC [Lipid IVA]
